Converted amounts (≈) assume the structure as drawn. One block for each molecule: values may come before it.
Legend:
Assay in all cases: ≥ marks a high value that may be exact or a test limit, other limits are often not marked, values filed in µg/mL are converted to µM
[1] = test system: Pseudomonas aeruginosa CCARM 2095
[2] = test system: Staphylococcus epidermidis KCTC 1917
[3] = test system: Salmonella typhimurium KCTC 1926
[4] = test system: Staphylococcus aureus CCARM 3001
[5] = test system: Staphylococcus aureus KCTC 1621
[6] = test system: Staphylococcus aureus CCARM 3543
[7] = test system: Pseudomonas aeruginosa KCTC 1637
[8] = test system: Escherichia coli KCTC 1682
[9] = test system: Bacillus subtilis KCTC 3068
[10] = test system: Pseudomonas aeruginosa CCARM 2109
[11] = test system: Staphylococcus aureus PCM 1944
[12] = test system: Escherichia coli PCM 2057
[13] = test system: Staphylococcus aureus ATCC 2592
[14] = test system: Bacillus subtilis ATCC 6633
[15] = test system: Pseudomonas fluorescens ATCC 13525
[16] = test system: Staphylococcus epidermidis ATCC 12228
[17] = test system: Candida albicans ATCC 36232
[18] = test system: Micrococcus luteus ATCC 9341
[19] = test system: Pseudomonas aeruginosa ATCC 9027
[20] = test system: Shigella flexneri ATCC 203
[21] = test system: Staphylococcus aureus ATCC 6538
[22] = test system: Staphylococcus aureus
[23] = test system: Escherichia coli ATCC 2592
[24] = test system: Corynebacterium diphtheriae ATCC 8024
[25] = test system: Klebsiella pneumoniae KK3 9904
[26] = test system: Escherichia coli AX-128-3-3
[27] = test system: Candida albicans
[28] = test system: Escherichia coli 0164 EIEC6
[29] = test system: Escherichia coli AX-100-3-1
[30] = test system: Escherichia coli AX-109-2-3
[31] = test system: Escherichia coli 0152 EIEC1
[32] = test system: Proteus mirabilis ATCC 25933
[33] = test system: Escherichia coli O6:K15:H31 536
[34] = test system: Escherichia coli O157:H7 CB6392
[35] = test system: Escherichia coli U7794
[36] = test system: Staphylococcus epidermidis RP62A
[37] = test system: Pseudomonas aeruginosa ATCC 27853
[38] = test system: Escherichia coli ATCC 35218
[39] = test system: Escherichia coli O26:H- CB6418
[40] = test system: Staphylococcus aureus NCTC 8325
[41] = test system: Escherichia coli 0112 EIEC26
[42] = test system: Escherichia coli
[43] = test system: Escherichia coli O157:H7 30328
[44] = test system: Escherichia coli O26:H11 3
[45] = test system: Escherichia coli AX-054-1-3
[46] = test system: Escherichia coli O157:H7 734/94
[47] = test system: Escherichia coli 0112 EIEC27
[48] = test system: Escherichia coli U7103
[49] = test system: Escherichia coli ATCC 25922
[50] = test system: Enterococcus faecalis ATCC 29212
[51] = test system: Enterobacter cloacae NHTCC 53001
[52] = test system: Escherichia coli O157:H7 282
[53] = test system: Escherichia coli 0143 EIEC7

Compound: CC(C)C[C@H](NC(=O)[C@H](Cc1c[nH]c2ccccc12)NC(=O)[C@H](CCCCN)NC(=O)[C@H](CC(C)C)NC(=O)[C@H](Cc1c[nH]c2ccccc12)NC(=O)[C@H](CC(C)C)NC(=O)[C@H](CCCCN)NC(=O)[C@H](Cc1c[nH]c2ccccc12)NC(=O)[C@H](CC(C)C)NC(=O)[C@@H](N)CCCCN)C(=O)N[C@@H](CCCCN)C(N)=O [KLWKLWLKWLK]
MIC [1]: 16 µM (≈ 24.7 µg/mL)
MIC [2]: 4 µM (≈ 6.16 µg/mL)
MIC [3]: 2 µM (≈ 3.08 µg/mL)
MIC [4]: 8 µM (≈ 12.3 µg/mL)
MIC [5]: 2 µM (≈ 3.08 µg/mL)
MIC [6]: 4 µM (≈ 6.16 µg/mL)
MIC [7]: 4 µM (≈ 6.16 µg/mL)
MIC [8]: 4 µM (≈ 6.16 µg/mL)
MIC [9]: 4 µM (≈ 6.16 µg/mL)
MIC [10]: 16 µM (≈ 24.7 µg/mL)

Compound: CC[C@H](C)[C@@H]1NC(=O)[C@H](CO)NC(=O)[C@H](CCCCN)NC(=O)[C@@H](N)CSSC[C@@H](C(=O)O)NC(=O)[C@H](Cc2ccccc2)NC1=O [CKSIFC]
MIC [11]: ≥ 1430 µM
MIC [12]: ≥ 1430 µM

Compound: CC[C@H](C)[C@H](NC(=O)[C@H](CCCCN)NC(=O)[C@H](CC(C)C)NC(=O)[C@H](Cc1ccccc1)NC(=O)[C@H](CO)NC(=O)[C@H](CC(C)C)NC(=O)[C@H](Cc1ccccc1)NC(=O)[C@H](CCCN=C(N)N)NC(=O)[C@H](CO)NC(=O)[C@H](CC(C)C)NC(=O)[C@@H](N)CO)C(=O)N[C@H](C(=O)N[C@@H](Cc1ccc(O)cc1)C(=O)N1CCC[C@H]1C(=O)N1CCC[C@H]1C(=O)N[C@@H](C)C(=O)N[C@@H](Cc1ccccc1)C(N)=O)C(C)C [SLSRFLSFLKIVYPPAF]
MIC [13]: 25.2 µM (≈ 50 µg/mL)
MIC [14]: 25.2 µM (≈ 50 µg/mL)
MIC [15]: ≥ 50.4 µM

Second part, the molecule after the results:

MIC [16]: 11.5 µM (≈ 15 µg/mL)
MIC [17]: 11.5 µM (≈ 15 µg/mL)
MIC [18]: 23.1 µM (≈ 30 µg/mL)
MIC [19]: 38.4 µM (≈ 50 µg/mL)
MIC [20]: 11.5 µM (≈ 15 µg/mL)
MIC [21]: 23.1 µM (≈ 30 µg/mL)
MIC [22]: > 76.9 µM
MIC [23]: 11.5 µM (≈ 15 µg/mL)
MIC [14]: 11.5 µM (≈ 15 µg/mL)
MIC [24]: 5.77 µM (≈ 7.49 µg/mL)
Compound: CC(C)[C@H](NC(=O)[C@H](CS)NC(=O)[C@@H](NC(=O)[C@H](CCCN=C(N)N)NC(=O)[C@H](CCCCN)NC(=O)CNC(=O)[C@H](CC(N)=O)NC(=O)[C@H](CS)NC(=O)[C@@H](N)Cc1ccc(O)cc1)C(C)C)C(=O)N[C@@H](CS)C(=O)N[C@@H](CCCN=C(N)N)C(N)=O [YCNGKRVCVCR]

MIC [25]: 10 µM (≈ 26.7 µg/mL)
MIC [26]: 5 µM (≈ 13.3 µg/mL)
MIC [27]: 20 µM (≈ 53.3 µg/mL)
MIC [28]: 5 µM (≈ 13.3 µg/mL)
MIC [29]: 5 µM (≈ 13.3 µg/mL)
MIC [30]: 5 µM (≈ 13.3 µg/mL)
MIC [31]: 5 µM (≈ 13.3 µg/mL)
MIC [32]: ≥ 100 µM
MIC [33]: 2.5 µM (≈ 6.66 µg/mL)
MIC [34]: 5 µM (≈ 13.3 µg/mL)
MIC [35]: 5 µM (≈ 13.3 µg/mL)
MIC [36]: 10 µM (≈ 26.7 µg/mL)
MIC [37]: 10 µM (≈ 26.7 µg/mL)
MIC [22]: 10 µM (≈ 26.7 µg/mL)
MIC [38]: 5 µM (≈ 13.3 µg/mL)
MIC [39]: 5 µM (≈ 13.3 µg/mL)
MIC [40]: 10 µM (≈ 26.7 µg/mL)
MIC [41]: 5 µM (≈ 13.3 µg/mL)
MIC [42]: 5 µM (≈ 13.3 µg/mL)
MIC [43]: 5 µM (≈ 13.3 µg/mL)
MIC [44]: 2.5 µM (≈ 6.66 µg/mL)
MIC [45]: 10 µM (≈ 26.7 µg/mL)
MIC [46]: 5 µM (≈ 13.3 µg/mL)
MIC [47]: 5 µM (≈ 13.3 µg/mL)
MIC [48]: 2.5 µM (≈ 6.66 µg/mL)
MIC [49]: 10 µM (≈ 26.7 µg/mL)
MIC [50]: 20 µM (≈ 53.3 µg/mL)
MIC [51]: 10 µM (≈ 26.7 µg/mL)
MIC [52]: 2.5 µM (≈ 6.66 µg/mL)
MIC [53]: 5 µM (≈ 13.3 µg/mL)
Compound: CC[C@H](C)[C@H](NC(=O)[C@H](CCCCN)NC(=O)[C@H](CS)NC(=O)[C@H](C)NC(=O)[C@@H](NC(=O)[C@H](Cc1ccccc1)NC(=O)CNC(=O)[C@H](CC(C)C)NC(=O)CNC(=O)[C@@H](NC(=O)[C@H](CCCCN)NC(=O)CNC(=O)[C@H](CC(C)C)NC(=O)[C@H](CCCCN)NC(=O)[C@H](CCCCN)NC(=O)[C@H](CC(C)C)NC(=O)[C@@H](NC(=O)[C@H](CO)NC(=O)[C@H](CC(C)C)NC(=O)[C@H](CCSC)NC(=O)[C@@H](N)CO)C(C)C)C(C)C)C(C)C)C(=O)N[C@@H](CC(N)=O)C(=O)N[C@@H](CCCCN)C(=O)N[C@@H](CCC(N)=O)C(=O)N[C@@H](CS)C(=O)O [SMLSVLKKLGKVGLGFVACKINKQC]

From DBAASP
